Results published in patent US8865623B2, “Herbicidally active cyclic diones and derivatives thereof, processes for their preparation, compositions, and method of controlling weeds” (Syngenta Limited, priority 2009, dated 2014).

Experiments:
Assay type in all cases: in vivo
Avena fatua (AVEFA) [1] = assay: Pre-emergence herbicidal activity, glasshouse pot test; details: evaluated after 13 days; for pest or weed control at 250 g/ha: Avena fatua, 312 h, Rate 250 g/ha, read-out: Pre-emergence activity AVEFA (100=total damage to plant; 0=no damage to plant)
Outline: (§1)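 Rating: 0 (no damage) to 100 (total damage), 13 days after application. Application: aqueous spray from a.i. in acetone/water (50:50) + 0.5% Tween 20, one day (pre) or 8 days (post) after sowing. Glasshouse: 24/16° C, 14 h light, 65% humidity.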

[2] = system: Alopecurus myosuroides (ALOMY); assay: as above; details: evaluated after 13 days; for pest or weed control at 250 g/ha: Alopecurus myosuroides, 312 h, Rate 250 g/ha, read-out: Pre-emergence activity ALOMY (100=total damage to plant; 0=no damage to plant)
Outline: as §1

[3] = system: Echinochloa crus-galli (ECHCG); assay: as above; details: evaluated after 13 days; for pest or weed control at 250 g/ha: Echinochloa crus-galli, 312 h, Rate 250 g/ha, read-out: Pre-emergence activity ECHCG (100=total damage to plant; 0=no damage to plant)
Outline: as §1

Lolium perenne (LOLPE) [4] = assay: as above; details: evaluated after 13 days; for pest or weed control at 250 g/ha: Lolium perenne, 312 h, Rate 250 g/ha, read-out: Pre-emergence activity LOLPE (100=total damage to plant; 0=no damage to plant)
Outline: as §1

Avena fatua (AVEFA) [5] = assay: Post-emergence herbicidal activity, glasshouse pot test; details: rate 250 g/ha, evaluated after 13 days; for pest or weed control at 250 g/ha: Avena fatua, 312 h, read-out: Post-emergence activity AVEFA (100=total damage to plant; 0=no damage to plant)
Outline: as §1

[6] = system: Alopecurus myosuroides (ALOMY); assay: as above; details: rate 250 g/ha, evaluated after 13 days; for pest or weed control at 250 g/ha: Alopecurus myosuroides, 312 h, read-out: Post-emergence activity ALOMY (100=total damage to plant; 0=no damage to plant)
Outline: as §1

[7] = system: Echinochloa crus-galli (ECHCG); assay: as above; details: rate 250 g/ha, evaluated after 13 days; for pest or weed control at 250 g/ha: Echinochloa crus-galli, 312 h, read-out: Post-emergence activity ECHCG (100=total damage to plant; 0=no damage to plant)
Outline: as §1

Lolium perenne (LOLPE) [8] = assay: as above; details: rate 250 g/ha, evaluated after 13 days; for pest or weed control at 250 g/ha: Lolium perenne, 312 h, read-out: Post-emergence activity LOLPE (100=total damage to plant; 0=no damage to plant)
Outline: as §1

Compound	pest or weed control at 250 g/ha (Avena fatua (AVEFA) [1]; pre-emergence spray)	pest or weed control at 250 g/ha ([2]; pre-emergence spray)	pest or weed control at 250 g/ha ([3]; pre-emergence spray)	pest or weed control at 250 g/ha (Lolium perenne (LOLPE) [4]; pre-emergence spray)	pest or weed control at 250 g/ha (Avena fatua (AVEFA) [5]; glasshouse)	pest or weed control at 250 g/ha ([6]; glasshouse)	pest or weed control at 250 g/ha ([7]; glasshouse)	pest or weed control at 250 g/ha (Lolium perenne (LOLPE) [8]; glasshouse)	also measured
CCc1ccc(Oc2ccc(C(F)(F)F)c(C#N)c2)cc1C1=C(O)[C@@H]2CC[C@](C)(C1=O)C2(C)C [Example A-323]	80%	70%	100%	100%	80%	60%	90%	70%	
CC1(C)OC(C)(C)C(O)=C(c2cc(Oc3ccc(Br)cc3F)ccc2C2CC2)C1=O [Example A-350]									pest or weed control at 250 g/ha (Avena fatua (AVEFA) [1]; pre-emergence): 50%; pest or weed control at 250 g/ha ([2]; pre-emergence): 90%; pest or weed control at 250 g/ha ([3]; pre-emergence): 100%; pest or weed control at 250 g/ha (Lolium perenne (LOLPE) [4]; pre-emergence): 100%; pest or weed control at 250 g/ha (Avena fatua (AVEFA) [5]): 90%; pest or weed control at 250 g/ha [6]: 90%; pest or weed control at 250 g/ha [7]: 100%; pest or weed control at 250 g/ha (Lolium perenne (LOLPE) [8]): 90%
CCc1ccc(Oc2ccc3cc(Cl)ccc3n2)cc1C1=C(O)CC2(CCOCC2)CC1=O [Example A-191]	40%	40%	90%	60%	100%	100%	100%	100%	
CCc1ccc(Oc2ccc(Br)cc2)cc1C1=C(O)[C@H]2CC[C@H](C2)C1=O (single isomer, unassigned) [Example A-91]	70%	80%	100%	100%	90%	90%	100%	80%	
CCc1ccc(Oc2ccc(Br)c(Cl)c2)cc1C1=C(O)[C@@H]2CC[C@](C)(C1=O)C2(C)C [Example A-241]	0%	30%	80%	70%	70%	40%	90%	60%	
CCc1ccc(Oc2ccc(C#N)cc2F)cc1C1=C(OC(C)=O)C(C)(C)OC(C)(C)C1=O [Example P-1]									AVEFA damage to plant (100=total damage to plant; 0=no damage to plant) (Avena fatua (AVEFA) [1]; pre-emergence, rate 250 g/ha): 20; ALOMY damage to plant (100=total damage to plant; 0=no damage to plant) ([2]; pre-emergence, rate 250 g/ha): 80; ECHCG damage to plant (100=total damage to plant; 0=no damage to plant) ([3]; pre-emergence, rate 250 g/ha): 100; LOLPE damage to plant (100=total damage to plant; 0=no damage to plant) (Lolium perenne (LOLPE) [4]; pre-emergence, rate 250 g/ha): 100; AVEFA damage to plant (100=total damage to plant; 0=no damage to plant) (Avena fatua (AVEFA) [5]): 60; ALOMY damage to plant (100=total damage to plant; 0=no damage to plant) [6]: 80; ECHCG damage to plant (100=total damage to plant; 0=no damage to plant) [7]: 100; LOLPE damage to plant (100=total damage to plant; 0=no damage to plant) (Lolium perenne (LOLPE) [8]): 90
CCc1ccc(Oc2ccc(Cl)cc2F)cc1C1=C(O)CC2(CCOCC2)CC1=O [Example A-65]	90%	70%	100%	80%	90%	90%	100%	80%	
CCc1ccc(Oc2ccc([N+](=O)[O-])c(Cl)c2)cc1C1=C(O)CC2(CCOCC2)CC1=O [Example A-276]	10%	40%	100%	70%	10%	60%	100%	40%	
CCc1ccc(Oc2ccc(Br)cc2F)cc1C1=C(O)CCC(C)(C)C1=O [Example A-114]	50%	20%	60%	90%	10%	10%	80%	50%	
CCc1ccc(Oc2ccc(I)cn2)cc1C1=C(O)C(C)(C)OC(C)(C)C1=O [Example A-163]	70%	70%	100%	100%	90%	90%	100%	100%	
CCc1ccc(Oc2ncc(Cl)cc2C(F)(F)F)cc1C1=C(O)C(C)(C)OC(C)(C)C1=O [Example A-143]	40%	60%	100%	70%	100%	100%	100%	100%	
CCc1ccc(Oc2nc3cccc(C#N)c3s2)cc1C1=C(O)C(C)(C)OC(C)(C)C1=O [Example A-220]	0%	10%	30%	10%	30%	60%	100%	80%	
CCc1ccc(Oc2c(F)cc(C(F)(F)F)cc2F)cc1C1=C(O)C(C)(C)OC(C)(C)C1=O [Example A-205]	10%	20%	60%	60%	60%	70%	100%	90%	
CCc1ccc(Oc2nc3c(Cl)cc(Cl)cc3s2)cc1C1=C(O)C(C)(C)OC(C)(C)C1=O [Example A-221]	40%	60%	70%	60%	50%	80%	100%	90%	
CCc1ccc(Oc2nc(Cl)c(Cl)cc2Cl)cc1C1=C(O)C(C)(C)OC(C)(C)C1=O [Example A-142]	0%	20%	40%	10%	20%	20%	70%	10%	
CCc1ccc(Oc2ccc([N+](=O)[O-])c(Cl)c2)cc1C1=C(O)[C@H]2CC[C@H](C2)C1=O [Example A-333]	40%	50%	100%	90%	70%	60%	100%	60%	
CCc1ccc(Oc2ccc(Cl)c(C(F)(F)F)c2)cc1C1=C(O)C(C)(C)OC(C)(C)C1=O [Example A-183]	20%	30%	60%	80%	50%	70%	90%	40%	
CCc1ccc(Oc2nc3ccc(OC)cc3s2)cc1C1=C(O)[C@@H]2CC[C@](C)(C1=O)C2(C)C [Example A-326]	10%	30%	70%	90%	90%	30%	100%	90%	
